Among the data in patent US8536172B2, “Inhibitors of JNK” (Roche Palo Alto LLC, priority 2009, dated 2013) are IC50 values, retold here.

In the assay the target is Human JNK2α2 (Homo sapiens (Human), UniProt P45984). Put plainly: JNK assay in vitro: phosphorylation of GST-ATF2 (19-96) with [γ-33P] ATP, JNK2. The following applies: 1 nM enzyme, 1 μM ATF2, 8 μM ATP (Km), 30° C. 30 min. It is filed as biochemical. The protocol: JNK activity was measured by phosphorylation of GST-ATF2 (19-96) with [γ-^33P] ATP. […] Human JNK2α2 assay contains 1 nM enzyme, 1 μM ATF2, 8 μM ATP with 1 uCi [γ-^33P] ATP. Human JNK1α1 assay contains 2 nM enzyme, 1 μM ATF2, 6 μM ATP with 1 μCi [γ-^33P] ATP. Human JNK3 (Upstate Biotech #14-501M) assay contains 2 nM enzyme, 1 μM ATF2, 4 μM ATP with 1 μCi [γ-^33P] ATP. The enzyme assay was carried out in the presence or absence of several compound concentrations. JNK and compound were pre-incubated for 10 min., followed by initiation of the enzymatic reaction by adding ATP and the substrate. The reaction mixture was incubated at 30° C. for 30 min. At the end of incubation, the reaction was terminated by transferring 25 μl of the reaction mixture to 150 μl of 10% glutathione Sepharose® slurry (Amersham #27-4574-01) containing 135 mM EDTA. The reaction product was captured on the affinity resin, and washed on a filtration plate (Millipore, MABVNOB50) with phosphate buffered saline for six times to remove free radionucleotide. The incorporation of ^33P into ATF2 was quantified on a microplate scintillation counter (Packard Topcount). Compound inhibition potency on JNK was measured by IC50 value generated from ten concentration inhibition curves fitted into the 3-parameter model: % inhibition=Maximum/(1+(IC50/[Inhibitor])^slope). Data were analyzed on Microsoft Excel for parameter estimation.

Each structure is given as a SMILES string.

Chain of Human JNK2α2 (P45984 whole entry): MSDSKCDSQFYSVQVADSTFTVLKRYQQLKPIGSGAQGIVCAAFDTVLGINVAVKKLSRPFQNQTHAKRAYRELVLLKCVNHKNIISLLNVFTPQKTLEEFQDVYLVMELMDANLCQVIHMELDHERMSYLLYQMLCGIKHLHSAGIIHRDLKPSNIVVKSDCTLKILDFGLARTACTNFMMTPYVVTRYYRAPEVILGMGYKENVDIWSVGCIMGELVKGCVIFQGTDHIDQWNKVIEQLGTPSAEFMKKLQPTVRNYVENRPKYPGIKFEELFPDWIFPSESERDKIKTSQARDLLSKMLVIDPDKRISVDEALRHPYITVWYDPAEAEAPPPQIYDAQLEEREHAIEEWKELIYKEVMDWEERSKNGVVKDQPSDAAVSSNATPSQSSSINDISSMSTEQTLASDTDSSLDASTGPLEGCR

Compound `CS(=O)(=O)N[C@H]1CC[C@H](Nc2nccc(-n3ccc4c(N5CCNCC5)cccc43)n2)CC1` [Compound I-1, N-{4-[4-(4-Piperazin-1-yl-indol-1-yl)-pyrimidin-2-ylamino]-cyclohexyl}-methanesulfonamide] gave an IC50 of 1430 nM.
Turning to `CS(=O)(=O)N[C@H]1CC[C@H](Nc2nccc(-n3ccc4c(N5CCN(S(C)(=O)=O)CC5)cccc43)n2)CC1` [Compound I-3, N-(4-{4-[4-(4-Methanesulfonyl-piperazin-1-yl)-indol-1-yl]-pyrimidin-2-ylamino}-cyclohexyl)-methanesulfonamide], the IC50 is 182 nM.
Next, `CS(=O)(=O)N[C@H]1CC[C@H](Nc2nccc(-n3ccc4c(N5CCN(C(N)=O)CC5)cccc43)n2)CC1` [Compound I-7, 4-{1-[2-(4-Methanesulfonylamino-cyclohexylamino)-pyrimidin-4-yl]-1H-indol-4-yl}-piperazine-1-carboxylic acid amide]: 86.1 nM; `CS(=O)(=O)N[C@H]1CC[C@H](Nc2nccc(-n3ccc4c(N5CCN(S(N)(=O)=O)CC5)cccc43)n2)CC1` [Compound I-8, 4-{1-[2-(4-Methanesulfonylamino-cyclohexylamino)-pyrimidin-4-yl]-1H-indol-4-yl}-piperazine-1-sulfonic acid amide]: 82.3 nM.
Next, `N#CCC(=O)N1CCN(c2cccc3c2ccn3-c2ccnc(N[C@H]3CC[C@H](CO)CC3)n2)CC1` [Compound I-27, 3-(4-{1-[2-(4-Hydroxymethyl-cyclohexylamino)-pyrimidin-4-yl]-1H-indol-4-yl}-piperazin-1-yl)-3-oxo-propionitrile]: 12.8 nM; `N#CCC(=O)N1CCN(c2cccc3c2ccn3-c2ccnc(N[C@H]3CC[C@H](CN4CC[C@H](O)C4)CC3)n2)CC1` [Compound I-28, 3-[4-(1-{2-[4-((S)-3-Hydroxy-pyrrolidin-1-ylmethyl)-cyclohexylamino]-pyrimidin-4-yl}-1H-indol-4-yl)-piperazin-1-yl]-3-oxo-propionitrile]: 55.5 nM.
Take `CC(=O)N1CCN(c2cccc3c2ccn3-c2ccnc(N[C@H]3CC[C@H](CN4CC[C@@H](O)C4)CC3)n2)CC1` [Compound I-29, 1-[4-(1-{2-[4-((R)-3-Hydroxy-pyrrolidin-1-ylmethyl)-cyclohexylamino]-pyrimidin-4-yl}-1H-indol-4-yl)-piperazin-1-yl]-ethanone]: half-maximal inhibition (IC50) required 525 nM.
Next, `CCOC1CCN(C(=O)[C@H]2CC[C@H](Nc3nccc(-n4ccc5c(N6CCC(S(C)(=O)=O)CC6)cccc54)n3)CC2)CC1` [Compound I-30, (4-Ethoxy-piperidin-1-yl)-(4-{4-[4-(4-methanesulfonyl-piperidin-1-yl)-indol-1-yl]-pyrimidin-2-ylamino}-cyclohexyl)-methanone]: 82.7 nM; `N#CCC(=O)O[C@@H]1CCC[C@H](Nc2nccc(-n3ccc4c(N5CCN(C(=O)CC#N)CC5)cccc43)n2)C1` [Compound I-33, Cyano-acetic acid (1R,3S)-3-(4-{4-[4-(2-cyano-acetyl)-piperazin-1-yl]-indol-1-yl}-pyrimidin-2-ylamino)-cyclohexyl ester]: 198 nM.
For `N#CCC(=O)N1CCN(c2cccc3c2ccn3-c2ccnc(N[C@H]3CCC[C@H](O)C3)n2)CC1` [Compound I-34, 3-(4-{1-[2-((1S,3S)-3-Hydroxy-cyclohexylamino)-pyrimidin-4-yl]-1H-indol-4-yl}-piperazin-1-yl)-3-oxo-propionitrile] the value was 89.2 nM.
Next, `N#CCC(=O)N1CCN(c2cccc3c2ccn3-c2ccnc(N[C@H]3CCC[C@@H](O)C3)n2)CC1` [Compound I-35, 3-(4-{1-[2-((1S,3R)-3-Hydroxy-cyclohexylamino)-pyrimidin-4-yl]-1H-indol-4-yl}-piperazin-1-yl)-3-oxo-propionitrile]: 177 nM.

By IC50 is commonly meant the point on the concentration scale where inhibition reaches its midpoint.
